Source: ChEMBL document CHEMBL1124940, “N-[(arylmethoxy)phenyl] carboxylic acids, hydroxamic acids, tetrazoles, and sulfonyl carboxamides. Potent orally active leukotriene D4 antagonists of novel structure” (J Med Chem, 1990)
Values belong to the molecule of their own block, whether it stands above or below them.

How the values were obtained:
[1] = target: T1, Polyunsaturated fatty acid 5-lipoxygenase (Rattus norvegicus, UniProt P12527); experiment: Concentration that produces 50% inhibition of A-23187-stimulated radiolabeled 5-HETE and TXB2 synthesis by PMN 5-lipoxygenase.
T1 sequence (P12527 whole entry): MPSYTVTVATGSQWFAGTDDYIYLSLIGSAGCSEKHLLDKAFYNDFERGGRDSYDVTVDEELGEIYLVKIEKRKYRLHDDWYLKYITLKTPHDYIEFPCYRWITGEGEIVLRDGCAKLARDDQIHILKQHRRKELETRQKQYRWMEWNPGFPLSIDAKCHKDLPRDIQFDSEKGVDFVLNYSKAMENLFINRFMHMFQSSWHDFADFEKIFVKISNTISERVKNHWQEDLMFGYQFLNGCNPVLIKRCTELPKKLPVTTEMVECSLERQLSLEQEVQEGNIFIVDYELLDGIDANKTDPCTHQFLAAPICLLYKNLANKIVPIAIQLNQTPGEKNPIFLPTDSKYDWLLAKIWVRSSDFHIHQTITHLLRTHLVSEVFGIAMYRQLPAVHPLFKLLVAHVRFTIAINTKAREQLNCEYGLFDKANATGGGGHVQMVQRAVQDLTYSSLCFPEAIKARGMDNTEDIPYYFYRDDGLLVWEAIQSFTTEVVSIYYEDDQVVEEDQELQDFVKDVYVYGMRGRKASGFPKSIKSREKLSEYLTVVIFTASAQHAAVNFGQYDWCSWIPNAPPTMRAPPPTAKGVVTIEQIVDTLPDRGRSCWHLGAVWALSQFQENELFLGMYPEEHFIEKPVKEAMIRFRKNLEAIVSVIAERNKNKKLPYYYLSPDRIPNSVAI

Cyclooxygenase = target: T2, Cyclooxygenase (Rattus norvegicus, UniProt P35355+Q63921); experiment: Concentration that produces 50% inhibition of A-23187-stimulated radiolabeled 5-HETE and TXB2 synthesis by Prostaglandin G/H synthase; assay type: protein assay
T2 sequence (P35355 whole entry): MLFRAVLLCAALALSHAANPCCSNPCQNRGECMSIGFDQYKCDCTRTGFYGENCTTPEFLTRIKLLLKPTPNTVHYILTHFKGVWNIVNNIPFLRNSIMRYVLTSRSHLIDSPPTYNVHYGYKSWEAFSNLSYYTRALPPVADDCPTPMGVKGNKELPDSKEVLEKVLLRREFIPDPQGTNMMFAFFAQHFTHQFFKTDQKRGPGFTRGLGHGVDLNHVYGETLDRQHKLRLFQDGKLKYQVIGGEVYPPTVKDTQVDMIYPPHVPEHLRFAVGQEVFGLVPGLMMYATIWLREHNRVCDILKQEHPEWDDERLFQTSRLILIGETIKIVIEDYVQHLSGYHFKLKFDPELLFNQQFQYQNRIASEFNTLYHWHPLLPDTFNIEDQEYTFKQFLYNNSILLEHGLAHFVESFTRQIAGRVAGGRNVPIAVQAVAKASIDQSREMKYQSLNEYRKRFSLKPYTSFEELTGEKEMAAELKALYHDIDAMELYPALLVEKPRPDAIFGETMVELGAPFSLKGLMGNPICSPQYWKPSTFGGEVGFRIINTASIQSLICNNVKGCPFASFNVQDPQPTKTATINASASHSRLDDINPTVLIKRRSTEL
T2 sequence (Q63921 whole entry): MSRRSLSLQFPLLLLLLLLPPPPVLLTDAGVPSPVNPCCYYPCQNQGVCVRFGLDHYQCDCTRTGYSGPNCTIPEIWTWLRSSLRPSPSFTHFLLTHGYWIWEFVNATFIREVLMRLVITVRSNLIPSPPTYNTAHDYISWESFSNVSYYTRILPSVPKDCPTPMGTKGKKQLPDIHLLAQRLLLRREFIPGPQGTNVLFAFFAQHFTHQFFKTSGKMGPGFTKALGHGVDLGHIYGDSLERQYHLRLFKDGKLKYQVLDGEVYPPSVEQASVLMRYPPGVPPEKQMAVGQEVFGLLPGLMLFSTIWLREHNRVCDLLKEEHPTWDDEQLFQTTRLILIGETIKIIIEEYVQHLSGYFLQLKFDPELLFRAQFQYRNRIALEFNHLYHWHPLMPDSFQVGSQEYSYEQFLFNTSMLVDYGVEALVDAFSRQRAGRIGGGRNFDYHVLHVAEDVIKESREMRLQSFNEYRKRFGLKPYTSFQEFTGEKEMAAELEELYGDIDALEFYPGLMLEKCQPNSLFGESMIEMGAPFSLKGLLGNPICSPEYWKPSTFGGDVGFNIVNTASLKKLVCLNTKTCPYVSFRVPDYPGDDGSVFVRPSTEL

Cavia porcellus [2] = species: Cavia porcellus; experiment: Dose of antagonist that produces 50% inhibition of ovalbumin-induced bronchoconstriction.; assay type: functional
Cavia porcellus [3] = experiment: Inhibition of LTD4-induced broncho constriction in Guinea pig after intragastrical administration of a dose of 25 mg/kg; assay type: functional; details: po, route intragastric
Cavia porcellus [4] = experiment: In vitro inhibition of LTD4-induced bronchoconstriction into isolated guinea pig trachea by injecting intragastrically; assay type: functional; details: po
Cavia porcellus [5] = experiment: Dissociation constant was determined in vitro after intraduodenal administration in isolated guinea pig trachea; assay type: ADME, organism-based; details: in vivo, other
Cavia porcellus [6] = experiment: Tested for the inhibition of LTD4-induced bronchoconstriction in Guinea pig, compound injected intragastrically at dose of 3 mg/kg.; assay type: functional; details: po, route intragastric
Cavia porcellus [7] = experiment: Tested for the inhibition of ovalbumin induced bronchoconstriction in Guinea pig, compound injected intragastrically at dose of 10 mg/kg.; assay type: functional; details: po, route intragastric
Cavia porcellus [8] = experiment: Tested for the inhibition of LTD4-induced bronchoconstriction in Guinea pig, compound injected intraduodenally, dose of 3 mg/kg; assay type: functional; details: route intraduodenal
Rattus norvegicus [9] = experiment: Antiinflammatory effect was studied in a rat carrageenan paw edema (CE) assay at 50 mg/kg; assay type: functional
Cavia porcellus [10] = experiment: Inhibition of ovalbumin-induced broncho constriction in Guinea pig after intraduodenal administration of a dose of 25 mg/kg; assay type: functional
Cavia porcellus [11] = experiment: Tested for the inhibition of ovalbumin- induced bronchoconstriction in Guinea pig, compound injected intragastrically at dose of 25 mg/kg.; assay type: functional; details: po, route intragastric
Cavia porcellus [12] = experiment: Inhibition of ovalbumin induced bronchoconstriction in Guinea pig, compound injected intraduodenally at a dose of 10 mg/kg; assay type: functional; details: route intraduodenal
Cavia porcellus [13] = experiment: Inhibition of ovalbumin induced bronchoconstriction in Guinea pig, compound injected intragastrically, dose is 25 mg/kg; assay type: functional; details: po, route intragastric
Cavia porcellus [14] = experiment: Inhibition of LTD4-induced broncho constriction in Guinea pig after intraduodenal administration of a dose of 3 mg/kg; assay type: functional
Cavia porcellus [15] = experiment: Inhibition of LTD4-induced bronchoconstriction in Guinea pig after intragastrical administration of dose of 3 mg/kg; assay type: functional; details: po, route intragastric
Cavia porcellus [16] = experiment: Inhibition of LTD4-induced broncho constriction in Guinea pig, compound injected intraduodenally at a dose of 25 mg/kg; assay type: functional; details: route intraduodenal
Cavia porcellus [17] = experiment: Inhibition of ovalbumin induced bronchoconstriction in Guinea pig, compound injected intragastrically, dose is 10 mg/kg; assay type: functional; details: po, route intragastric
Cavia porcellus [18] = experiment: Inhibition of LTD4-induced bronchoconstriction in Guinea pig after intragastrical administration of dose of 25 mg/kg; assay type: functional; details: po, route intragastric
Cavia porcellus [19] = experiment: Inhibition of ovalbumin induced bronchoconstriction in Guinea pig, compound injected intraduodenally at a dose of 25 mg/kg; assay type: functional; details: route intraduodenal
Cavia porcellus [20] = experiment: In vitro inhibition of ovalbumin-induced bronchoconstriction in isolated guinea pig trachea by injecting intraduodenally; assay type: functional; details: intraduodenal
Cavia porcellus [21] = experiment: -log dissociation constant was determined In vitro in isolated guinea pig trachea after intraduodenal administration (before 10 min); assay type: ADME, organism-based; details: in vivo, other
Cavia porcellus [22] = experiment: In vitro LTD4-induced bronchoconstriction in isolated guinea pig trachea by injecting intraduodenally; assay type: functional; details: intraduodenal
Cavia porcellus [23] = experiment: In vitro inhibition of ovalbumin-induced bronchoconstriction after intragastrical administration 120 min before agonist into isolated guinea pig trachea; assay type: functional; details: po
Cavia porcellus [24] = experiment: In vitro inhibition of LTD4-induced bronchoconstriction after intragastrical administration 120 min before agonist into isolated guinea pig trachea; assay type: functional; details: po
Cavia porcellus [25] = experiment: Tested for the inhibition of LTD4-induced bronchoconstriction in Guinea pig, compound injected intragastrically at dose of 3 mg/kg; assay type: functional; details: po, route intragastric
Cavia porcellus [26] = experiment: Inhibition of LTD4-induced broncho constriction in Guinea pig after intraduodenal administration of a dose of 25 mg/kg; assay type: functional
Cavia porcellus [27] = experiment: Inhibition of LTD4-induced broncho constriction in Guinea pig after intragastrical administration of a dose of 3 mg/kg; assay type: functional; details: po, route intragastric
Cavia porcellus [28] = experiment: Tested for the inhibition of ovalbumin- induced bronchoconstriction in Guinea pig, injected intragastrically, dose of 10 mg/kg; assay type: functional; details: po, route intragastric
Cavia porcellus [29] = experiment: In vitro inhibition of LTD4-induced bronchoconstriction into isolated guinea pig trachea by injecting intraduodenally; assay type: functional; details: intraduodenal
Cavia porcellus [30] = species: Cavia porcellus; experiment: Dose of antagonist that produces 50% inhibition of ovalbumin-induced bronchoconstriction; assay type: functional
[31] = target: T1, Polyunsaturated fatty acid 5-lipoxygenase; experiment: Concentration that produces 50% inhibition of A-23187-stimulated radiolabeled 5-HETE and TXB2 synthesis by PMN 5-lipoxygenase; assay type: functional
Rattus norvegicus [32] = experiment: Antiinflammatory effect was studied in a rat carrageenan paw edema (CE) assay at a dose of 50 mg/kg; assay type: functional
Cavia porcellus [33] = experiment: Tested for the inhibition of LTD4-induced bronchoconstriction in Guinea pig, injected intraduodenally, dose is 3 mg/kg; assay type: functional; details: route intraduodenal
Cavia porcellus [34] = experiment: Tested for the inhibition of ovalbumin- induced bronchoconstriction in Guinea pig, injected intragastrically, dose of 25 mg/kg; assay type: functional; details: po, route intragastric
Cavia porcellus [35] = experiment: Tested for the inhibition of LTD4-induced broncho constriction in Guinea pig, injected intraduodenally at a dose of 25 mg/kg; assay type: functional; details: route intraduodenal
Cavia porcellus [36] = experiment: Tested for the inhibition of LTD4-induced broncho constriction in Guinea pig; injected intraduodenally at a dose of 25 mg/kg; assay type: functional; details: route intraduodenal
Cavia porcellus [37] = experiment: Inhibition of ovalbumin-induced broncho constriction in Guinea pig after intraduodenal administration of a dose of 10 mg/kg; assay type: functional
Cavia porcellus [38] = experiment: Tested for the inhibition of LTD4-induced bronchoconstriction in Guinea pig, injected intragastrically, dose is 3 mg/kg.; assay type: functional; details: po, route intragastric
Cavia porcellus [39] = experiment: Tested for the inhibition of LTD4-induced bronchoconstriction in Guinea pig, injected intraduodenally, dose is 10 mg/kg; assay type: functional; details: route intraduodenal

IC50 [1]: 6.2 µM
IC50 (Cyclooxygenase): 13.4 µM
pKb (Cavia porcellus [5]): 7.78
SMILES: Cc1ccc(S(=O)(=O)NC(=O)c2cccc(OCc3ccc4ccccc4n3)c2)cc1
ED50 (Cavia porcellus [2]): 2.02 mg/kg
inhibition in vivo at 25 mg/kg (Cavia porcellus [3]): 91%
ED50 (Cavia porcellus [4]): 0.4 mg/kg
inhibition in vivo at 3 mg/kg (Cavia porcellus [6]): 86%
inhibition in vivo at 10 mg/kg (Cavia porcellus [7]): 4%
inhibition in vivo at 3 mg/kg (Cavia porcellus [8]): 83%
inhibition in vivo at 50 mg/kg (Rattus norvegicus [9]): < 69%
inhibition in vivo at 25 mg/kg (Cavia porcellus [10]): < 80%
inhibition in vivo at 25 mg/kg (Cavia porcellus [11]): < 57%

SMILES: CONC(=O)c1cccc(OCc2ccc3ccccc3n2)c1
inhibition in vivo at 10 mg/kg (Cavia porcellus [12]): 84%
inhibition in vivo at 25 mg/kg (Cavia porcellus [13]): < -2%
inhibition in vivo at 3 mg/kg (Cavia porcellus [14]): 64%
inhibition in vivo at 3 mg/kg (Cavia porcellus [15]): -6%
inhibition in vivo at 25 mg/kg (Cavia porcellus [16]): 93%
inhibition in vivo at 10 mg/kg (Cavia porcellus [17]): 9%
inhibition in vivo at 25 mg/kg (Cavia porcellus [18]): < 72%
inhibition in vivo at 25 mg/kg (Cavia porcellus [19]): < 77%

pKb (Cavia porcellus [21]): 6.55
SMILES: CCCc1c(OCCCCc2nnn[nH]2)ccc(C(C)=O)c1O [TOMELUKAST]
ED50 (Cavia porcellus [20]): 19 mg/kg
ED50 (Cavia porcellus [22]): 6 mg/kg
ED50 (Cavia porcellus [23]): 38 mg/kg
ED50 (Cavia porcellus [24]): 32 mg/kg

SMILES: O=C(Cc1cccc(OCc2ccc3ccccc3n2)c1)NOCc1ccccc1
inhibition in vivo at 3 mg/kg (Cavia porcellus [25]): 18%
inhibition in vivo at 25 mg/kg (Cavia porcellus [3]): < 67%
inhibition in vivo at 25 mg/kg (Cavia porcellus [26]): < 26%

IC50 [31]: 3.9 µM
SMILES: c1cc(Cc2nnn[nH]2)cc(OCc2ccc3ccccc3n2)c1
inhibition in vivo at 3 mg/kg (Cavia porcellus [27]): 50%
inhibition in vivo at 25 mg/kg (Cavia porcellus [3]): < 99%
ED50 (Cavia porcellus [4]): 3 mg/kg
inhibition in vivo at 10 mg/kg (Cavia porcellus [28]): 49%
ED50 (Cavia porcellus [29]): 3 mg/kg
ED50 (Cavia porcellus [30]): 6.7 mg/kg
inhibition in vivo at 50 mg/kg (Rattus norvegicus [32]): 30%
inhibition in vivo at 3 mg/kg (Cavia porcellus [33]): 53%
inhibition in vivo at 25 mg/kg (Cavia porcellus [34]): < 31%
inhibition in vivo at 25 mg/kg (Cavia porcellus [35]): < 94%

SMILES: Cc1ccc(S(=O)(=O)NC(=O)c2ccc(OCc3ccc4ccccc4n3)cc2)cc1
inhibition in vivo at 25 mg/kg (Cavia porcellus [36]): < -9%

SMILES: Cc1ccc(S(=O)(=O)NC(=O)c2cccc(OCc3ncc4ccccc4n3)c2)cc1
inhibition in vivo at 10 mg/kg (Cavia porcellus [37]): 66%
inhibition in vivo at 3 mg/kg (Cavia porcellus [38]): 60%
inhibition in vivo at 25 mg/kg (Cavia porcellus [3]): 99%
inhibition in vivo at 10 mg/kg (Cavia porcellus [39]): 50%
inhibition in vivo at 25 mg/kg (Cavia porcellus [35]): 85%
